Assay results taken from patent publication US20220339134A1, “VERY-LONG-CHAIN POLYUNSATURATED FATTY ACIDS, ELOVANOID HYDROXYLATED DERIVATIVES, AND METHODS OF USE” (Board of Supervisors of Louisiana State University and …, priority 2019, published 2022).

Test system: primary human RPE cells
Assay: Primary human RPE cells treated with 10 μM OAβ +/- ELVs (SA-β-Gal staining, qPCR)
Type: cell-based
Details: 3 days qPCR, 7 days staining
Procedure: (A) In vitro experimental design: Primary human RPE cells were treated with 10 μM OAβ+/−ELVs. After 3 days, RNA was isolated and qPCR analyzed. After 7 days, cells were subjected to β-Galactosidase staining. (B) Live cell images under bright field microscopy after 7 days. (C) β-Gal staining+/−ELVs. Quantitation of % for the β-Gal positive cells. ELVs decreased positive senescent cells. (D) Gene transcription of senescence, AMD-related and autophagy genes after OAβ (1-42) exposure+/−ELVs. (*P <0.05, student t-test).
OAβ toxicity is counteracted by ELVs in primary hRPE. (A) Primary hRPE cells were treated with 10 μM OAβ with or without adding ELVs. After 3 days, the total RNA was isolated and q-PCR analyzed. After 7 days, cells were subjected to β-Galactosidase staining. (B) Live cell images of primary hRPE under bright field microscope imaging after 7 days. (C) β-Galactosidase staining of primary hRPE, +/−ELVs. Quantitation of % for the β-Gal positive cells. ELVs decreased positive senescent cells. […]
Cells were visualized using SA-β-Gal staining kit (Cat 9860, Cell Signaling Technology, MA, USA). […] Pictures were taken under brightfield microscope (Nikon Eclipse TS100) 200× magnification after the development of blue color, and cells counted in 10 different random fields per well. […]

## CC/C=C\C[C@H](O)\C=C/C=C/C=C/[C@H](O)C/C=C\C/C=C\CCCCCCCCCCCCCCC(=O)O [ELV-N-34]
  OAβ effects: RPE cell morphology, SASP (SA-β-Gal), senescence, AMD, MMP and autophagy gene expression: reverted these effects
